Laboratory results: patent publication US9822190B2, “Compositions and method for anti-sickling of red blood cells in sickle cell disease” (priority 2015, dated 2017)
Entries after “also recorded” stand apart in the source; their conditions may differ.

Legend:
[1] = system: RBC from SCD subjects; assay: Anti-sickling of RBC from SCD subjects under hypoxia (blood smears); type: cell-based, human; details: for anti-sickling (average): 10 ug/ml blood
Experimental: (§1) Red Blood Cell (RBC) sickling were studied in blood samples obtained from 12 sickle cell subjects and 6 samples from healthy volunteers matched in terms of age and gender. The blood samples from the subjects were withdrawn and mixed into EDTA tube (10 ml), and then divided into 2 tubes 4-5 ml each (One containing S-NACH 10-100 ug/ml blood added at 10 ul/1 ml blood or PBS buffer solution).
(§2) Blood samples were incubated for 2-3 hours at room temperature and then blood smears were obtained for monitoring shape of RBCs (take photos for later quantitation number of normal vs. sickle RBCs). Then blood samples were centrifuged to get the plasma, and the plasma were frozen for further testing of various biomarkers.

[2] = system: RBC from healthy subjects; assay: Effect on morphology of RBC from healthy subjects; type: cell-based, human
Experimental: as §1, §2

[3] = Plasma tinzaparin level after oral administration to mice (colorimetric assay); type: in vivo; details: oral gavage, 1.6 mg/kg
Experimental: Nanoformulated LMWH as shown in Examples 1-5 were administered orally to mice versus standard LMWH at the same dose. Blood samples were withdrawn at different time and plasma levels of LMWH were measured using colorimetric assay.
FIG. 11 is a graph of plasma tinzaparin level versus time profiles in mice with formulations administered by oral gavage into the mice at dose of 1.6 mg/kg, in accordance with embodiments of the present invention. Graphs for Tinzaparin, and Chitosan NPs with positive charge and with negative charge are shown. Data are shown as mean±SD (n=4).

With `OC[C@H]1O[C@@](CO)(O[C@H]2O[C@H](CO)[C@@H](O)[C@H](O)[C@H]2O)[C@@H](O)[C@@H]1O` [sucrose, reference compound] the “effect on the average % of sickle RBC” value ([1]; Patient #7, over 2-4 hours hypoxia at 25 degree centigrade) was “no significant effect” and the “effect on the sickling” value ([1]; Patient #7 acute crisis, hypoxia 2-4 hours at 25 degree centigrade) was “no significant effect”.
In the case of “Sulfated Non-Anticoagulant Heparin [SNACH]”, the “effect on normal morphology of RBC” value [2] is reported as “no effect; also recorded: without any effect”, the “anti-sickling (average)” value ([1]; hypoxia 2-4 hours at 25 degree centigrade, SCD subject #5) is reported as over 90% and the “anti-sickling (average)” value ([1]; hypoxia 2-4 hours at 25 degree centigrade, SCD subjects) is reported as over 90%. The “formation of irreversibly sickled cells” value ([1]; 2-24 hours incubation under 95% N2/5% CO2, high concentration) was “significantly decreased”.
With Tinzaparin [standard tinzaparin] the “blood levels after oral administration” value [3] was “no detectable blood levels”.
